Data published in PubChem BioAssay (NCI).
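Growth conditions: 96-well plates. Treatment: test compound, 48 hours, 5 concentrations. Analysis: linear interpolation between bracketing concentrations; unreached endpoints set to highest concentration. Here, GI50 denotes the concentration required for 50% inhibition of growth. TGI: total growth inhibition.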

What was measured:
Assay in all cases: growth of human tumour cells (NCI), 48 h
[1] = tested on: OVCAR-8 ovarian
[2] = tested on: RPMI-8226 leukemia
[3] = tested on: HOP-92 NSCLC
[4] = tested on: EKVX NSCLC
[5] = tested on: OVCAR-3 ovarian
[6] = tested on: IGROV1 ovarian
[7] = tested on: LOX IMVI melanoma
[8] = tested on: SW-620 colon
[9] = tested on: SF-268 CNS
[10] = tested on: RXF 393 renal

Row | Structure (SMILES) | GI50 [1] [µM] | TGI [1] [µM] | GI50 [2] [µM] | TGI [2] [µM] | GI50 [3] [µM] | TGI [3] [µM] | GI50 [4] [µM] | TGI [4] [µM] | GI50 [5] [µM] | TGI [5] [µM] | GI50 [6] [µM] | TGI [6] [µM] | GI50 [7] [µM] | TGI [7] [µM] | GI50 [8] [µM] | TGI [8] [µM] | GI50 [9] [µM] | TGI [9] [µM] | GI50 [10] [µM] | TGI [10] [µM]
1 | CN(C)c1cc2c(Nc3ccc4c(cnn4Cc4ccccc4)c3)ncnc2cn1 | 9.13 | > 25 | 10.9 | > 25 | 8.82 | > 25 | 0.108 | > 8.76 | 6.43 | > 25 | 5.38 | > 23.3 | 8.32 | > 25 | 15.3 | > 25 | > 24.1 | > 25 | 8.3 | > 20.8
2 | O=c1cc(-c2ccccc2)oc2cc(OCCCCCN3CCOCC3)cc(O)c12 | 68.2 | > 100 | 62.3 | > 100 | 11 | 26.6 | > 100 | > 100 | > 100 | > 100 | 47.4 | > 100 | > 100 | > 100 | > 100 | > 100 | 75.9 | > 100 | 16.8 | 46.1
3 | C[C@]12CC(C=O)C(=O)C(O)=C1CC[C@@H]1C2CC[C@@]2(C)C1CC[C@]2(C)O (stereo not given in full) | – | 89.9 | – | 48.8 | – | 33.4 | – | 96 | – | 64.7 | – | 47.5 | – | 24.7 | – | > 100 | – | 66.1 | – | 37.3
4 | Cc1c(NC(=O)Nc2c(Cl)cccc2Cl)c(=O)n(-c2ccccc2)n1C | – | > 100 | – | > 100 | – | > 100 | – | > 100 | – | > 100 | – | > 100 | – | > 100 | – | > 100 | – | > 100 | – | > 100
5 | COc1cc(C2c3cc4c(cc3[C@@H](Nc3ccc([N+](=O)[O-])cc3)C3COC(=O)[C@H]23)OCO4)cc(OC)c1O (stereo not given in full) | 0.981 | 11 | 0.256 | 7.22 | 0.393 | – | – | 17.2 | – | 17.3 | – | 24.3 | 0.367 | 6.67 | 0.783 | > 91.7 | 0.914 | 39.5 | – | 6.93
6 | O=C1C(Cl)=C(Cl)C(=O)N1c1cccc(C(F)(F)F)c1 | – | > 100 | – | > 100 | – | > 100 | – | > 100 | – | > 100 | – | > 100 | – | > 100 | – | > 100 | – | > 100 | – | 70
7 | CCCCCCCCC(C)CCCCCCCCC(=O)OCC(COP(=O)([O-])OCC[N+](C)(C)C)OC(=O)CCCCCCCCC(C)CCCCCCCC (stereo not given) | – | > 100 | – | > 100 | – | > 100 | – | > 100 | – | > 100 | – | > 100 | – | > 100 | – | > 100 | – | > 100 | – | > 100
8 | CC(C)N1C(C)[C@@H](c2ccccc2)O[P@@]1(=O)CC1=CCCCC1 (stereo not given in full) | – | > 100 | – | > 100 | – | > 100 | – | > 100 | – | > 100 | – | > 100 | – | > 100 | – | > 100 | – | > 100 | – | > 100
